What all share (format): in vivo, rat
Assay [1] deals with Dahl salt-sensitive rats. The experiment in a line: Blood pressure in Dahl salt-sensitive rats on high-salt high-fat diet. The conditions noted are these: for mean blood pressure: 12 weeks after start, mean±standard deviation, pemafibrate 0.5 mg/kg/day, pitavastatin 0.3 mg/kg/day, salt-containing HFD, control 193.6±6.6; for change in blood pressure compared with control group: 12 weeks, analysis of variance/Bonferroni. The procedure: (§1) Drug efficacy was evaluated on Dahl salt-sensitive rats (Dahl-Iwai S, 7 weeks old, Japan SLC, Inc.) fed on a 8% salt-containing HFD (High Fat Diet: 29.4% fat content, CLEA Japan, Inc.) (4 groups in total: (1) control group, (2) pemafibrate (0.5 mg/kg/day) single-agent administration group, (3) pitavastatin (0.3 mg/kg/day) single-agent administration group, and (4) pemafibrate (0.5 mg/kg/day)+pitavastatin (0.3 mg/kg/day) combined administration group, with 10 animals for each group). Twelve weeks after the start of administration, the animals were euthanized after measuring their blood pressure, and the weight of the isolated hearts and the endothelial function of the isolated thoracic aortas were measured with a Magnus apparatus. The measurement with the Magnus apparatus was performed according to the standard method. That is, a ring preparation of the isolated thoracic aorta was prepared, suspended in a Magnus tube in Krebs-Henseleit solution, loaded with a tension of 1 g, and constricted with 0.3 μM phenylephrine. Then, acetylcholine (10^−9 to 10^−5 M) was added cumulatively, and the relaxation response was measured. Finally, […] was obtained with 100 μM papaverine, and the relaxation rate was evaluated. When measuring with the Magnus apparatus, the blood vessels of normal rats were also evaluated in addition to the four groups, and were used as a control group. In addition, the expression level of phosphorylated endothelial nitric oxide synthase (phospho-eNOS) was evaluated by Western blotting according to the standard method, using the isolated aortas.

The subject of assay [2] is isolated thoracic aorta of Dahl salt-sensitive rats. The experiment in a line: Endothelial function of isolated thoracic aorta, Magnus apparatus, acetylcholine relaxation response. As to conditions: 12 weeks dosing; aorta ring constricted with 0.3 μM phenylephrine, cumulative acetylcholine; mixed effect model, Bonferroni. How it is done: as §1, with “That is, a ring preparation of the isolated thoracic aorta was prepared, suspended in a Magnus tube in Krebs-Henseleit solution, loaded with a tension of 1 g, and constricted with 0.3 μM phenylephrine.” left out

Assay [3] concerns Dahl salt-sensitive rats. Briefly: Weight of isolated hearts of Dahl salt-sensitive rats on high-salt high-fat diet. The conditions noted are these: for heart weight: 12 weeks after start, mean±standard deviation, pemafibrate 0.5 mg/kg/day, pitavastatin 0.3 mg/kg/day, salt-containing HFD, control 1.74±0.1; for change in heart weight compared with control group: 12 weeks, analysis of variance/Bonferroni. How it is done:
as §1

For assay [4], the system named is phosphorylated endothelial nitric oxide synthase (phospho-eNOS). Briefly: Expression level of phospho-eNOS in isolated aortas by Western blotting. As to conditions: 12 weeks dosing. How it is done: as §1, with “That is, a ring preparation of the isolated thoracic aorta was prepared, suspended in a Magnus tube in Krebs-Henseleit solution, loaded with a tension of 1 g, and constricted with 0.3 μM phenylephrine.” left out
On the technique in general: In western blotting, separated proteins are transferred to a membrane and probed.

Structures are written as SMILES.

For `O=C(O)C[C@H](O)C[C@H](O)/C=C/c1c(C2CC2)nc2ccccc2c1-c1ccc(F)cc1` [pitavastatin], in the assay with Dahl salt-sensitive rats [1], the mean blood pressure amounted to 196.9±8.4 mmHg and the “change in blood pressure compared with control group” value is “no change was observed”. In addition, the “vasodilatory responsiveness as a whole compared with control group” value in assay [2] was “showed a trend toward improvement in vasodilatory responsiveness”. Further, in the assay on Dahl salt-sensitive rats [3], the heart weight stood at 1.76 ± 0.2 g and the “change in heart weight compared with control group” value is recorded as “no change compared to the control”. Moreover, the “expression level of phospho-eNOS compared to control group” value in assay [4] was “tendency to increase”.

With `CC[C@@H](Oc1cccc(CN(CCCOc2ccc(OC)cc2)c2nc3ccccc3o2)c1)C(=O)O` [pemafibrate, (2R)-2-[3-({1,3-benzoxazol-2-yl[3-(4-methoxyphenoxy)propyl]amino}methyl)phenoxy]butanoic acid], in the assay with Dahl salt-sensitive rats [1], the mean blood pressure is reported as 192.6±8.3 mmHg and the “change in blood pressure compared with control group” value is given as “no change was observed”. In assay [2], the “vasodilatory responsiveness as a whole compared with control group” value is “showed a trend toward improvement in vasodilatory responsiveness”. Moreover, in the assay with Dahl salt-sensitive rats [3], the heart weight was found to be 1.48 ± 0.1 g and the “change in heart weight compared with control group” value was “significantly lower than that of the control”. Besides, the “expression level of phospho-eNOS compared to control group” value in assay [4] is on record as “tendency to increase”.
